According to PubChem BioAssay (NCI):
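Protocol summary: plate cells (96-well), add compound at 5 concentrations, incubate 48 h, interpolate endpoints linearly. Definition used: TGI = concentration required for complete inhibition of growth.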

Columns and labels:
Assay in all cases: growth of human tumour cells (NCI), 48 h
786-0 renal = system: 786-0 renal
A498 renal = system: A498 renal
A549 NSCLC = system: A549 NSCLC
ACHN renal = system: ACHN renal
BT-549 breast = system: BT-549 breast
CAKI-1 renal = system: CAKI-1 renal
CCRF-CEM leukemia = system: CCRF-CEM leukemia
COLO 205 colon = system: COLO 205 colon
DU-145 prostate = system: DU-145 prostate
HCT-116 colon = system: HCT-116 colon
HCT-15 colon = system: HCT-15 colon
HL-60(TB) leukemia = system: HL-60(TB) leukemia
HOP-62 NSCLC = system: HOP-62 NSCLC
HOP-92 NSCLC = system: HOP-92 NSCLC
HS 578T breast = system: HS 578T breast
HT29 colon = system: HT29 colon
IGROV1 ovarian = system: IGROV1 ovarian
K-562 leukemia = system: K-562 leukemia
KM12 colon = system: KM12 colon
LOX IMVI melanoma = system: LOX IMVI melanoma
M14 melanoma = system: M14 melanoma
MALME-3M melanoma = system: MALME-3M melanoma
MCF7 breast = system: MCF7 breast
MDA-MB-231 breast = system: MDA-MB-231 breast
MDA-MB-435 = system: MDA-MB-435
MDA-N = system: MDA-N
MOLT-4 leukemia = system: MOLT-4 leukemia
NCI-H226 lung = system: NCI-H226 lung
NCI-H23 lung = system: NCI-H23 lung
NCI-H460 lung = system: NCI-H460 lung
NCI-H522 lung = system: NCI-H522 lung
NCI/ADR-RES ovarian = system: NCI/ADR-RES ovarian
OVCAR-3 ovarian = system: OVCAR-3 ovarian
OVCAR-4 ovarian = system: OVCAR-4 ovarian
OVCAR-5 ovarian = system: OVCAR-5 ovarian
OVCAR-8 ovarian = system: OVCAR-8 ovarian
PC-3 prostate = system: PC-3 prostate
RPMI-8226 leukemia = system: RPMI-8226 leukemia
RXF 393 renal = system: RXF 393 renal
SF-268 CNS = system: SF-268 CNS
SF-295 CNS = system: SF-295 CNS
SF-539 CNS = system: SF-539 CNS
SK-MEL-2 melanoma = system: SK-MEL-2 melanoma
SK-MEL-28 melanoma = system: SK-MEL-28 melanoma
SK-MEL-5 melanoma = system: SK-MEL-5 melanoma
SK-OV-3 ovarian = system: SK-OV-3 ovarian
SN12C renal = system: SN12C renal
SNB-75 CNS = system: SNB-75 CNS
SR leukemia = system: SR leukemia
SW-620 colon = system: SW-620 colon
T-47D breast = system: T-47D breast
TK-10 renal = system: TK-10 renal
U251 CNS = system: U251 CNS
UACC-257 melanoma = system: UACC-257 melanoma
UACC-62 melanoma = system: UACC-62 melanoma
UO-31 renal = system: UO-31 renal
HCC-2998 colon = system: HCC-2998 colon
SNB-19 CNS = system: SNB-19 CNS

Cc1nc2cc([N+](=O)[O-])ccc2c(NCCCN(C)C)c1C
TGI (786-0 renal): 30.9 µM
TGI (A498 renal): 30.5 µM
TGI (A549 NSCLC): 32.2 µM
TGI (ACHN renal): 76.7 µM
TGI (BT-549 breast): 26.1 µM
TGI (CAKI-1 renal): 55.6 µM
TGI (CCRF-CEM leukemia): > 100 µM
TGI (COLO 205 colon): 8.55 µM
TGI (DU-145 prostate): 68.9 µM
TGI (HCT-116 colon): 22.4 µM
TGI (HCT-15 colon): 31.3 µM
TGI (HL-60(TB) leukemia): > 100 µM
TGI (HOP-62 NSCLC): 28.2 µM
TGI (HOP-92 NSCLC): 8.09 µM
TGI (HS 578T breast): 75.7 µM
TGI (HT29 colon): 10.9 µM
TGI (IGROV1 ovarian): 11.9 µM
TGI (K-562 leukemia): > 100 µM
TGI (KM12 colon): 26.6 µM
TGI (LOX IMVI melanoma): 36 µM
TGI (M14 melanoma): 26.7 µM
TGI (MALME-3M melanoma): 18.9 µM
TGI (MCF7 breast): 11 µM
TGI (MDA-MB-231 breast): 14.2 µM
TGI (MDA-MB-435): 31.1 µM
TGI (MDA-N): 28.2 µM
TGI (MOLT-4 leukemia): 29.4 µM
TGI (NCI-H226 lung): 25.9 µM
TGI (NCI-H23 lung): 15.4 µM
TGI (NCI-H460 lung): 13.5 µM
TGI (NCI-H522 lung): 10.7 µM
TGI (NCI/ADR-RES ovarian): 39.9 µM
TGI (OVCAR-3 ovarian): 33.7 µM
TGI (OVCAR-4 ovarian): 11.1 µM
TGI (OVCAR-5 ovarian): 38.3 µM
TGI (OVCAR-8 ovarian): 35.1 µM
TGI (PC-3 prostate): 24.3 µM
TGI (RPMI-8226 leukemia): > 100 µM
TGI (RXF 393 renal): 27.6 µM
TGI (SF-268 CNS): > 100 µM
TGI (SF-295 CNS): 48.4 µM
TGI (SF-539 CNS): 30 µM
TGI (SK-MEL-2 melanoma): 22.7 µM
TGI (SK-MEL-28 melanoma): > 100 µM
TGI (SK-MEL-5 melanoma): 21.7 µM
TGI (SK-OV-3 ovarian): > 100 µM
TGI (SN12C renal): 34.5 µM
TGI (SNB-75 CNS): > 100 µM
TGI (SR leukemia): > 100 µM
TGI (SW-620 colon): 24.7 µM
TGI (T-47D breast): 29 µM
TGI (TK-10 renal): 67 µM
TGI (U251 CNS): 63.5 µM
TGI (UACC-257 melanoma): 18.6 µM
TGI (UACC-62 melanoma): 33.9 µM
TGI (UO-31 renal): 32.1 µM

CCCc1c(Cl)nc(Cl)nc1Cl
TGI (786-0 renal): 11.2 µM
TGI (A498 renal): 34.7 µM
TGI (A549 NSCLC): 24.6 µM
TGI (ACHN renal): 10.7 µM
TGI (BT-549 breast): 4.37 µM
TGI (CCRF-CEM leukemia): 0.0921 µM
TGI (COLO 205 colon): 0.706 µM
TGI (DU-145 prostate): 9.82 µM
TGI (HCC-2998 colon): 15.6 µM
TGI (HCT-116 colon): 22.8 µM
TGI (HCT-15 colon): 3.71 µM
TGI (HL-60(TB) leukemia): 3.01 µM
TGI (HOP-62 NSCLC): 7.79 µM
TGI (HOP-92 NSCLC): 11.9 µM
TGI (HS 578T breast): 27.6 µM
TGI (HT29 colon): 4.02 µM
TGI (IGROV1 ovarian): > 37.3 µM
TGI (K-562 leukemia): 1.53 µM
TGI (KM12 colon): 15.8 µM
TGI (LOX IMVI melanoma): 0.461 µM
TGI (M14 melanoma): > 37.9 µM
TGI (MALME-3M melanoma): 4.95 µM
TGI (MCF7 breast): 16.3 µM
TGI (MDA-MB-231 breast): 7.99 µM
TGI (MDA-MB-435): 2.44 µM
TGI (MDA-N): 0.548 µM
TGI (MOLT-4 leukemia): 10.7 µM
TGI (NCI-H226 lung): 0.0913 µM
TGI (NCI-H23 lung): 4.3 µM
TGI (NCI-H460 lung): 12.7 µM
TGI (NCI/ADR-RES ovarian): 7.53 µM
TGI (OVCAR-3 ovarian): 5.46 µM
TGI (OVCAR-4 ovarian): 26.3 µM
TGI (OVCAR-5 ovarian): 17.5 µM
TGI (OVCAR-8 ovarian): > 19.9 µM
TGI (PC-3 prostate): 28.6 µM
TGI (RPMI-8226 leukemia): > 33.1 µM
TGI (RXF 393 renal): 4.93 µM
TGI (SF-268 CNS): > 68 µM
TGI (SF-295 CNS): 12.3 µM
TGI (SF-539 CNS): 5.84 µM
TGI (SK-MEL-2 melanoma): 4.35 µM
TGI (SK-MEL-28 melanoma): 1.45 µM
TGI (SK-MEL-5 melanoma): 2.54 µM
TGI (SK-OV-3 ovarian): > 100 µM
TGI (SN12C renal): 5.51 µM
TGI (SNB-19 CNS): 21.1 µM
TGI (SNB-75 CNS): 28.1 µM
TGI (SR leukemia): 2.15 µM
TGI (SW-620 colon): 12.7 µM
TGI (T-47D breast): 11.7 µM
TGI (TK-10 renal): 18.5 µM
TGI (U251 CNS): 7.95 µM
TGI (UACC-257 melanoma): 11.1 µM
TGI (UACC-62 melanoma): > 100 µM
TGI (UO-31 renal): > 55.4 µM
